# Test results as given in US7723368B2, “Amino-5-[4-(difluoromethoxy)phenyl]-5-phenylimidazolone compounds for the inhibition of beta-secretase” (Wyeth LLC, priority 2007, dated 2010).
# Target: human BACE1 (Homo sapiens, UniProt P56817)
# Assay: BACE1 fluorescent kinetic assay (cleavage of peptide substrate WABC-6)
# Type: biochemical
# Conditions: Activity Table, Examples 1-108; 10 nM enzyme, 25 μM substrate WABC-6, pH 4.5, room temperature
# Protocol: Evaluation of BACE1 Binding Affinity of Test Compounds
# Fluorescent Kinetic Assays
# Dilution and mixing steps: total reaction volume: 100 μL
# 100 μM substrate dilution in 1×PBS was prepared, and
# Fluorescence Readings: Readings at λex 320 nm and λem 420 nm are taken every 40 sec for 30 min at room temperature and the linear slope for substrate cleavage rate (vi) determined.
# human BACE1, sequence (P56817 46-501): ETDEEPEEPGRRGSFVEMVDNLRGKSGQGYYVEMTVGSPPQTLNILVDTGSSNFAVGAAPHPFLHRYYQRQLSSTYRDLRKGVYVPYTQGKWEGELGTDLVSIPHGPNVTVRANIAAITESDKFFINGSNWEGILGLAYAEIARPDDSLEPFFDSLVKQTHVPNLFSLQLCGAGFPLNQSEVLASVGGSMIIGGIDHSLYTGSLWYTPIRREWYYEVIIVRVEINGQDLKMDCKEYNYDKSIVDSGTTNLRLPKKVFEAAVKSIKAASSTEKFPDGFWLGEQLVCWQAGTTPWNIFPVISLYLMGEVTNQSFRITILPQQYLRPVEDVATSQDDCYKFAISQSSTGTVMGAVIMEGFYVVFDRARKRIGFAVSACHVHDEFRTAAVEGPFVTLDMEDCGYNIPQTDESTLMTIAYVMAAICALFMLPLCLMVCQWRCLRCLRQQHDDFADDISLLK
row,IC50 [nM],Compound
1,> 1000,"CN(C)Cc1cccc(C2(c3ccc(OC(F)F)cc3)N=C(N)N(C)C2=O)c1 (stereo not drawn) [Example 62, 2-amino-5-[4-(difluoromethoxy)phenyl]-5-{3-[(dimethylamino)-methyl]phenyl}-3-methyl-3,5-dihydro-4H-imidazol-4-one]"
2,110 to 1000,"CCNCc1cccc(C2(c3ccc(OC(F)F)cc3)N=C(N)N(C)C2=O)c1 (stereo not drawn) [Example 63, 2-amino-5-[4-(difluoromethoxy)phenyl]-5-{3-[(ethylamino)methyl]phenyl}-3-methyl-3,5-dihydro-4H-imidazol-4-one]"
3,110 to 1000,"CCCNCc1cccc(C2(c3ccc(OC(F)F)cc3)N=C(N)N(C)C2=O)c1 (stereo not drawn) [Example 64, 2-amino-5-[4-(difluoromethoxy)phenyl]-3-methyl-5-{3-[(propylamino)-methyl]phenyl}-3,5-dihydro-4H-imidazol-4-one]"
4,110 to 1000,"CCCCNCc1cccc(C2(c3ccc(OC(F)F)cc3)N=C(N)N(C)C2=O)c1 (stereo not drawn) [Example 65, 2-amino-5-{3-[(butylamino)methyl]phenyl}-5-[4-(difluoromethoxy)phenyl]-3-methyl-3,5-dihydro-4H-imidazol-4-one]"
5,> 1000,"CN1C(=O)C(c2ccc(OC(F)F)cc2)(c2cccc(CN3CCCC3)c2)N=C1N (stereo not drawn) [Example 66, 2-amino-5-[4-(difluoromethoxy)phenyl]-3-methyl-5-[3-(pyrrolidin-1-ylmethyl)phenyl]-3,5-dihydro-4H-imidazol-4-one]"
6,> 1000,"CN1C(=O)C(c2ccc(OC(F)F)cc2)(c2ccc(OC(F)F)cc2)N=C1N [Example 67, 2-amino-5,5-bis[4-(difluoromethoxy)phenyl]-3-methyl-3,5-dihydro-4H-imidazol-4-one]"
7,110 to 1000,"CN1C(=O)C(c2ccc(OC(F)F)cc2)(c2cccc(CNCc3ccco3)c2)N=C1N (stereo not drawn) [Example 68, 2-amino-5-[4-(difluoromethoxy)phenyl]-5-(3-{[(2-furylmethyl)-amino]methyl}phenyl)-3-methyl-3,5-dihydro-4H-imidazol-4-one]"
8,110 to 1000,"C=CC[C@@H](C)c1cccc(C2(c3ccc(OC(F)F)cc3)N=C(N)N(C)C2=O)c1 (stereo partly drawn) [Example 69, 2-amino-4-(4-(difluoromethoxy)phenyl)-1-methyl-4-(3-((R)-pent-4-en-2-yl)phenyl)-1H-imidazol-5(4H)-one]"
9,> 1000,"CN1C(=O)C(c2ccc(OC(F)F)cc2)(c2cccc(C3CC3)c2)N=C1N (stereo not drawn) [Example 70, 2-amino-4-(3-cyclopropylphenyl)-4-(4-(difluoromethoxy)phenyl)-1-methyl-1H-imidazol-5(4H)-one]"
10,110 to 1000,"COC/C=C(\C)c1cccc(C2(c3ccc(OC(F)F)cc3)N=C(N)N(C)C2=O)c1 (stereo not drawn) [Example 71, (E)-2-amino-4-(4-(difluoromethoxy)phenyl)-4-(3-(4-methoxybut-2-en-2-yl)phenyl)-1-methyl-1H-imidazol-5(4H)-one]"
11,< 100,"CCOCCC#Cc1cccc(C2(c3ccc(OC(F)F)cc3)N=C(N)N(C)C2=O)c1 (stereo not drawn) [Example 73, 2-Amino-5-[4-(difluoromethoxy)phenyl]-5-[3-(4-ethoxybut-1-yn-1-yl)phenyl]-3-methyl-3,5-dihydro-4H-imidazol-4-one]"
12,110 to 1000,"Cc1cccc(C2(c3ccc(OC(F)F)cc3)N=C(N)N(C)C2=O)c1 (stereo not drawn) [Example 74, 2-Amino-5-[4-(difluoromethoxy)phenyl]-3-methyl-5-(3-methylphenyl)-3,5-dihydro-4H-imidazol-4-one]"
13,110 to 1000,"CC=Cc1cc(C2(c3ccc(OC(F)F)cc3)N=C(N)N(C)C2=O)ccc1F (stereo not drawn) [Example 75A, 2-amino-5-[4-(difluoromethoxy)phenyl]-5-(4-fluoro-3-prop-1-en-1-ylphenyl)-3-methyl-3,5-dihydro-4H-imidazol-4-one]"
14,110 to 1000,"C/C=C\c1cc(C2(c3ccc(OC(F)F)cc3)N=C(N)N(C)C2=O)ccc1F (stereo not drawn) [Example 75B, 2-amino-5-[4-(difluoromethoxy)phenyl]-5-{4-fluoro-3-[(1Z)-prop-1-en-1-yl]phenyl}-3-methyl-3,5-dihydro-4H-imidazol-4-one]"
15,> 1000,"C/C=C/c1cc(C2(c3ccc(OC(F)F)cc3)N=C(N)N(C)C2=O)ccc1F (stereo not drawn) [Example 75C, 2-amino-5-[4-(difluoromethoxy)phenyl]-5-{4-fluoro-3-[(1E)-prop-1-en-1-yl]phenyl}-3-methyl-3,5-dihydro-4H-imidazol-4-one]"
16,> 1000,"C/C=C\c1cc([C@]2(c3ccc(OC(F)F)cc3)N=C(N)N(C)C2=O)ccc1F [Example 76A, (5S)-2-amino-5-[4-(difluoromethoxy)phenyl]-5-{4-fluoro-3-[(1Z)-prop-1-en-1-yl]phenyl}-3-methyl-3,5-dihydro-4H-imidazol-4-one]"
17,> 1000,"C/C=C\c1cc([C@@]2(c3ccc(OC(F)F)cc3)N=C(N)N(C)C2=O)ccc1F [Example 76B, (5R)-2-amino-5-[4-(difluoromethoxy)phenyl]-5-{4-fluoro-3-[(1Z)-prop-1-en-1-yl]phenyl}-3-methyl-3,5-dihydro-4H-imidazol-4-one]"

row,IC50 [nM],Compound
1,> 1000,"C/C=C/c1cc([C@]2(c3ccc(OC(F)F)cc3)N=C(N)N(C)C2=O)ccc1F [Example 77A, (5S)-2-amino-5-[4-(difluoromethoxy)phenyl]-5-{4-fluoro-3-[(1E)-prop-1-en-1-yl]phenyl}-3-methyl-3,5-dihydro-4H-imidazol-4-one]"
2,< 100,"C/C=C/c1cc([C@@]2(c3ccc(OC(F)F)cc3)N=C(N)N(C)C2=O)ccc1F [Example 77B, (5R)-2-amino-5-[4-(difluoromethoxy)phenyl]-5-{4-fluoro-3-[(1E)-prop-1-en-1-yl]phenyl}-3-methyl-3,5-dihydro-4H-imidazol-4-one]"
3,110 to 1000,"CN1C(=O)C(c2ccc(OC(F)F)cc2)(c2cccc(O)c2)N=C1N (stereo not drawn) [Example 81, 2-Amino-5-[4-(difluoromethoxy)phenyl]-5-(3hydroxyphenyl)-3-methyl-3,5-dihydro-4H-imidazol-4-one]"
4,110 to 1000,"CN1C(=O)C(c2ccc(OC(F)F)cc2)(c2ccc(F)c(N3CCOCC3)c2)N=C1N (stereo not drawn) [Example 86, 2-amino-4-(4-(difluoromethoxy)phenyl)-4-(4-fluoro-3-morpholinophenyl)-1-methyl-1H-imidazol-5(4H)-one]"
5,< 100,"C=CC#Cc1cc(C2(c3ccc(OC(F)F)cc3)N=C(N)N(C)C2=O)ccc1F (stereo not drawn) [Example 87, 2-amino-4-(3-(but-3-en-1-ynyl)-4-fluorophenyl)-4-(4-(difluoromethoxy)phenyl)-1-methyl-1H-imidazol-5(4H)-one]"
6,110 to 1000,"CN1C(=O)C(c2ccc(OC(F)F)cc2)(c2cccc(Cc3ccco3)c2)N=C1N (stereo not drawn) [Example 88, 2-amino-4-(4-(difluoromethoxy)phenyl)-4-(3-(furan-2-ylmethyl)phenyl)-1-methyl-1H-imidazol-5(4H)-one]"
7,< 100,"CN1C(=O)C(c2ccc(OC(F)F)cc2)(c2ccc(F)c(OCCC(F)F)c2)N=C1N (stereo not drawn) [Example 92, 2-Amino-5-[4-(difluoromethoxy)phenyl]-5-[3-(3,3-difluoropropoxy)-4-fluorophenyl]-3-methyl-3,5-dihydro-4H-imidazol-4-one]"
8,110 to 1000,"CN1C(=O)[C@](c2ccc(OC(F)F)cc2)(c2ccc(F)c(OCCC(F)F)c2)N=C1N [Example 93, (5S)-2-Amino-5-[4-(difluoromethoxy)phenyl]-5-[3-(3,3-difluoropropoxy)-4-fluorophenyl]-3-methyl-3,5-dihydro-4H-imidazol-4-one]"
9,< 100,"CN1C(=O)[C@@](c2ccc(OC(F)F)cc2)(c2ccc(F)c(OCCC(F)F)c2)N=C1N [Example 94, (5R)-2-Amino-5-[4-(difluoromethoxy)phenyl]-5-[3-(3,3-difluoropropoxy)-4-fluorophenyl]-3-methyl-3,5-dihydro-4H-imidazol-4-one]"
10,110 to 1000,"Cc1cccc(C2(c3ccc(OC(F)F)cc3)N=C(N)N(C)C2=O)c1 (stereo not drawn) [Example 95, 2-Amino-5-[4-(difluoromethoxy)phenyl]-3-methyl-5-(3-methylphenyl)-3,5-dihydro-4H-imidazol-4-one]"
11,< 100,"CCOCCC#Cc1cccc(C2(c3ccc(OC(F)F)cc3)N=C(N)N(C)C2=O)c1 (stereo not drawn) [Example 96, 2-Amino-5-[4-(difluoromethoxy)phenyl]-5-[3-(4-ethoxybut-1-yn-1-yl)phenyl]-3-methyl-3,5-dihydro-4H-imidazol-4-one]"
12,< 100,"CN1C(=O)C(c2ccc(OC(F)F)cc2)(c2ccc(F)c(C#CCF)c2)N=C1N (stereo not drawn) [Example 99, 2-amino-5-[4-(difluoromethoxy)phenyl]-5-[4-fluoro-3-(3-fluoroprop-1-yn-1-yl)phenyl]-3-methyl-3,5-dihydro-4H-imidazol-4-one]"
13,< 100,"CN1C(=O)C(c2ccc(OC(F)F)cc2)(c2ccc(F)c(C#CCCF)c2)N=C1N (stereo not drawn) [Example 102, 2-amino-5-[4-(difluoromethoxy)phenyl]-5-[4-fluoro-3-(4-fluorobut-1-yn-1-yl)phenyl]-3-methyl-3,5-dihydro-4H-imidazol-4-one]"
14,> 1000,"CN1C(=O)[C@](c2ccc(OC(F)F)cc2)(c2ccc(F)c(C#CCCF)c2)N=C1N [Example 103, (5S)-2-amino-5-[4-(difluoromethoxy)phenyl]-5-[4-fluoro-3-(4-fluorobut-1-yn-1-yl)phenyl]-3-methyl-3,5-dihydro-4H-imidazol-4-one]"
15,< 100,"CN1C(=O)[C@@](c2ccc(OC(F)F)cc2)(c2ccc(F)c(C#CCCF)c2)N=C1N [Example 104, (5R)-2-amino-5-[4-(difluoromethoxy)phenyl]-5-[4-fluoro-3-(4-fluorobut-1-yn-1-yl)phenyl]-3-methyl-3,5-dihydro-4H-imidazol-4-one]"
16,< 100,"CN1C(=O)[C@@](c2ccc(OC(F)F)cc2)(c2ccc(F)c(C#CCF)c2)N=C1N [Example 107, (5R)-2-amino-5-[4-(difluoromethoxy)phenyl]-5-[4-fluoro-3-(3-fluoroprop-1-yn-1-yl)phenyl]-3-methyl-3,5-dihydro-4H-imidazol-4-one]"
